This is an account of results in ChEMBL document CHEMBL1201862, “PubChem BioAssay data set” (2004).

The target of test [1] is T1, 1-phosphatidylinositol 4,5-bisphosphate phosphodiesterase beta-3 (Homo sapiens, UniProt Q01970).
T1 sequence (Q01970 whole entry): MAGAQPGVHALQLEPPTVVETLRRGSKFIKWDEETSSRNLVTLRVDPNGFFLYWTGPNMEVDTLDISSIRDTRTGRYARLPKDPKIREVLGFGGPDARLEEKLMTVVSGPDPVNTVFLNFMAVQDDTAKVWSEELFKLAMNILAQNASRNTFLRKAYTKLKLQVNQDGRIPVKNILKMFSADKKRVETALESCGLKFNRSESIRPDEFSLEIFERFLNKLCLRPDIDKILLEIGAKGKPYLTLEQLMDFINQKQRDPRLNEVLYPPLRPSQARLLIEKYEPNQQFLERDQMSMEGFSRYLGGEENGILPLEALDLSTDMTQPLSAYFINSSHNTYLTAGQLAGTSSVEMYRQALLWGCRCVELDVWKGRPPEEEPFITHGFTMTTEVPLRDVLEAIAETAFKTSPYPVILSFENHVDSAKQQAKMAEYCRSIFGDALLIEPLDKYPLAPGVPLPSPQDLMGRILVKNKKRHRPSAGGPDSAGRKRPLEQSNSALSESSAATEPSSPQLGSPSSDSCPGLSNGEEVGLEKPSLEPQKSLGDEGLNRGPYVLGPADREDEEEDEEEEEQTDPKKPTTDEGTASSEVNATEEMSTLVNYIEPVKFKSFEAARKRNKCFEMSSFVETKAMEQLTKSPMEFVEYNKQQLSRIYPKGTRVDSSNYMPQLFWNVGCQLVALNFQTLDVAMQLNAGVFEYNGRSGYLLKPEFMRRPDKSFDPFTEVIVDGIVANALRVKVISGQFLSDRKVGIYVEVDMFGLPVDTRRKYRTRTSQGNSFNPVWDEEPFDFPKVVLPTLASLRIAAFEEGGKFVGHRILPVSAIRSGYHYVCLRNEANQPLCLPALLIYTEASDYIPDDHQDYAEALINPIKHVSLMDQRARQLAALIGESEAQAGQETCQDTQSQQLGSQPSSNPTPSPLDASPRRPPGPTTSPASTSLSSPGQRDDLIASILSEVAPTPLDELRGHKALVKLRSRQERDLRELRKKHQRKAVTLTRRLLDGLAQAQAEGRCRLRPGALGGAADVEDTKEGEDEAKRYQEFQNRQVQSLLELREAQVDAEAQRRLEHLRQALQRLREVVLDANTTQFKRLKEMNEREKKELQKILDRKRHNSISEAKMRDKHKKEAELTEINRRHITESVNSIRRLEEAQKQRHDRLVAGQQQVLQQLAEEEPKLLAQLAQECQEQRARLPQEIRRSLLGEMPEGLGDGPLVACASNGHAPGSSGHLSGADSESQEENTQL
In words: Fluorescence-based biochemical high throughput dose response assay to identify inhibitors of phospholipase C isozymes (PLC-B3).

Test [2] can be described thus: cells. Particulars: HEK-CNG. Type of test: functional, cell-based.
In test [3] the target is T2, Hexokinase HKDC1 (Homo sapiens, UniProt Q2TB90).
T2 sequence (Q2TB90 whole entry): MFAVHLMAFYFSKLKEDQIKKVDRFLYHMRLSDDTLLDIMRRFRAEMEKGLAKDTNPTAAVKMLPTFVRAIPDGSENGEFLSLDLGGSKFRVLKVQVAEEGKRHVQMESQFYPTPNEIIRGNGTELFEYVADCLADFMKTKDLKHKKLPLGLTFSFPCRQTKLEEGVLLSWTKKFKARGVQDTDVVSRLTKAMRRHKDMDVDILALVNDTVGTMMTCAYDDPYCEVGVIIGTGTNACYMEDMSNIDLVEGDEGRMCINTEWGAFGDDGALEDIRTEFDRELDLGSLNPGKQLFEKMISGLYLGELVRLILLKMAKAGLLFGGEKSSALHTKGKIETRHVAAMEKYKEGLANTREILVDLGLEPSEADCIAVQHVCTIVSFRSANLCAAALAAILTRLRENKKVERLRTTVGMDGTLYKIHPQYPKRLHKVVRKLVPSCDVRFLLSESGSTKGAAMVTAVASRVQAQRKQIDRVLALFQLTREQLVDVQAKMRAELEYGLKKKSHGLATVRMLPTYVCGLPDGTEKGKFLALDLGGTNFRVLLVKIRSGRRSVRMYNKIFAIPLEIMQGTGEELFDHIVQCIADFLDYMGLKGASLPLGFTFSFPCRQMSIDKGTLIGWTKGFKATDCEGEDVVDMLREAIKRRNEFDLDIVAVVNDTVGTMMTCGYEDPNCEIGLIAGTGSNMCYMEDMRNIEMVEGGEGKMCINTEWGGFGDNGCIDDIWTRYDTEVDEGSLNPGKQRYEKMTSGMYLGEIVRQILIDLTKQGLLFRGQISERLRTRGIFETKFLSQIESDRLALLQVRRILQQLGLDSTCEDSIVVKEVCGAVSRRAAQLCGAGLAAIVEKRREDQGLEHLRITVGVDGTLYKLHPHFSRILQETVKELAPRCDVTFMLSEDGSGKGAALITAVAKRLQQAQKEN
In words: inhibition of HKDC1 glucose phosphorylation – biochemical, W721R variant, dose response (AID 504729). Type of test: functional.

Test [4] deals with BJ. The test can be described thus: cells. The format is functional, cell-based. Particulars: Homo sapiens.
For test [5], the system named is Streptococcus sp. 'group A'. In words: Streptococcus pyogenes SK(-)GAS viability under kanamycin – luminescence, BacTiterGlo, confirmation, counter-screen for streptokinase expression inhibitor project, dose response (AID 1900). The format is functional, organism-based.
The target in test [6] is Transitional endoplasmic reticulum ATPase (Homo sapiens, UniProt P55072, C522A). The test can be described thus: C522A mutant p97 ATPase inhibitors, dose response, counter-screen for p97 inhibitor project, biochemical, luminescence (AID 1544).
Test [7] deals with T3, Cysteine protease ATG4B (Homo sapiens, UniProt Q9Y4P1).
T3 sequence (Q9Y4P1 whole entry): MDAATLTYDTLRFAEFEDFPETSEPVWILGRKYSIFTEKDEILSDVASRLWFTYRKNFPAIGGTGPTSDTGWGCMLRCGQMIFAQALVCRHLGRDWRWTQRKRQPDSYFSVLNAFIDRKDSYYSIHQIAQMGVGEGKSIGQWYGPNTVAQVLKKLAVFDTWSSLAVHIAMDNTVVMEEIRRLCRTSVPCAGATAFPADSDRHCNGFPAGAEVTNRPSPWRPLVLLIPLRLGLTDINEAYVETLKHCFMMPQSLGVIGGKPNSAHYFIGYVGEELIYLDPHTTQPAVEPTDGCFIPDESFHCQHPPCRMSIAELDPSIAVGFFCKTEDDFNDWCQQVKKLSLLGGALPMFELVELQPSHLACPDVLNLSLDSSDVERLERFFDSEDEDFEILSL
Type of test: functional.

A short description of test [8]: Vero E6 cell cytotoxicity, dose response, cytotoxicity control for non-replicating M. tuberculosis project, secondary assay (AID 492998). The format is functional, VeroE6. To be noted: Vero C1008.
In test [9] the target is Caspase-8 (Homo sapiens, UniProt Q14790). The test can be described thus: inhibitors of purified CASP8 protease – biochemical, Z-IETD-R110 fluorescence, cherry-picked samples, selectivity assay for caspase-6 inhibitor project, dose response (AID 743294).

The source made the active and inactive calls.

Sequence of Caspase-8 (Q14790 217-374 limits assumed): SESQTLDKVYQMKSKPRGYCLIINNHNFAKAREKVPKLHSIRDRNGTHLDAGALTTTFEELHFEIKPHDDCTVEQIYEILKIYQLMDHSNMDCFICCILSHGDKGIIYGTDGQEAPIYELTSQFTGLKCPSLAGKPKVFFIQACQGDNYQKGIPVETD
Sequence of Caspase-8 (Q14790 385-479 limits assumed): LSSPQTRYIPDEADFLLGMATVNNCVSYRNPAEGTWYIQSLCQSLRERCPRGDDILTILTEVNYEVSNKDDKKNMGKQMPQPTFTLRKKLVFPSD
Sequence of Transitional endoplasmic reticulum ATPase (P55072 2-806 C522A limits assumed): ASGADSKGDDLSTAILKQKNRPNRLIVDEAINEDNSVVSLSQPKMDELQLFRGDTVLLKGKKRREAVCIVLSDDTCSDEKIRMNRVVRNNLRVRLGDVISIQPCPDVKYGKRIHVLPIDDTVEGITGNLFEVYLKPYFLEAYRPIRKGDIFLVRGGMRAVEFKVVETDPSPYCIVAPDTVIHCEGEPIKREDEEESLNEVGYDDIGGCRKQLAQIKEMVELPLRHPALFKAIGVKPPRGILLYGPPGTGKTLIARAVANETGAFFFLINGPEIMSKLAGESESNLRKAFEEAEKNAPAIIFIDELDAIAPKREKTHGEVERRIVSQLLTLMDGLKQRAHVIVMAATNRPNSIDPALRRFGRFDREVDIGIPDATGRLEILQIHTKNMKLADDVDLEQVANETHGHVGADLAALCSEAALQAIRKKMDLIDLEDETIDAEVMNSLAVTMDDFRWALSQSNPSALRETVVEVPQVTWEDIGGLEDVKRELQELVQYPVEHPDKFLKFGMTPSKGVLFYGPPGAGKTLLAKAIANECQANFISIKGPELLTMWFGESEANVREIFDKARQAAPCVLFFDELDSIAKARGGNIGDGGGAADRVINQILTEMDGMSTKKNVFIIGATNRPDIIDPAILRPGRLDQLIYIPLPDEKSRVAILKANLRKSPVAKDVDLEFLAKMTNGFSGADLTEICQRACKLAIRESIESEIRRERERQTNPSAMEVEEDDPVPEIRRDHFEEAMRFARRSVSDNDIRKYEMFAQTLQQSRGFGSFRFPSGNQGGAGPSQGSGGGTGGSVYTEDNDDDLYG

Consider `O=C(CCN1C(=O)/C(=C\c2ccco2)SC1=S)Nc1ccc(C(=O)O)c(O)c1`, for which the IC50 – broadly, the point on the concentration scale where inhibition reaches its midpoint – in test [1] was > 122 µM (inactive).

For the compound `O=C1C=C(c2c(O)ccc3ccccc23)c2ccccc2C1=O`, in test [2], the EC50 (as a rule, the concentration that produces a half-maximal response) is > 29.9 µM (inactive). For the same compound, in test [3], the IC50 is 2.47 µM (active).

Consider `Cc1nc2c(=O)n(C)c(=O)nc-2n(C)n1`, for which the EC50 is 5.69 µM (active) in test [4] and 4.74 µM (active) in [5]. For the same compound, the IC50 in test [6] was > 50 µM (not active); in test [7], 3.73 µM (active). In test [8], the CC50 (usually the concentration giving 50% cytotoxicity) was 4.51 µM (active).

For `Oc1nc(Nc2ccccc2Cl)cc2ccccc12`, in test [9], the AC50 (usually the midpoint of the concentration-response curve, whichever way the signal moves) is 13.4 µM (active).
